Assay [1] deals with T1, AHR (Homo sapiens, UniProt P35869).
T1 construct: U87 MG glioblastoma cells (ATCC #HTB-14) endogenously expressing AHR; endogenous in cells; host or cells: U87 MG glioblastoma cells (ATCC #HTB-14)
T1 sequence (P35869 11-848): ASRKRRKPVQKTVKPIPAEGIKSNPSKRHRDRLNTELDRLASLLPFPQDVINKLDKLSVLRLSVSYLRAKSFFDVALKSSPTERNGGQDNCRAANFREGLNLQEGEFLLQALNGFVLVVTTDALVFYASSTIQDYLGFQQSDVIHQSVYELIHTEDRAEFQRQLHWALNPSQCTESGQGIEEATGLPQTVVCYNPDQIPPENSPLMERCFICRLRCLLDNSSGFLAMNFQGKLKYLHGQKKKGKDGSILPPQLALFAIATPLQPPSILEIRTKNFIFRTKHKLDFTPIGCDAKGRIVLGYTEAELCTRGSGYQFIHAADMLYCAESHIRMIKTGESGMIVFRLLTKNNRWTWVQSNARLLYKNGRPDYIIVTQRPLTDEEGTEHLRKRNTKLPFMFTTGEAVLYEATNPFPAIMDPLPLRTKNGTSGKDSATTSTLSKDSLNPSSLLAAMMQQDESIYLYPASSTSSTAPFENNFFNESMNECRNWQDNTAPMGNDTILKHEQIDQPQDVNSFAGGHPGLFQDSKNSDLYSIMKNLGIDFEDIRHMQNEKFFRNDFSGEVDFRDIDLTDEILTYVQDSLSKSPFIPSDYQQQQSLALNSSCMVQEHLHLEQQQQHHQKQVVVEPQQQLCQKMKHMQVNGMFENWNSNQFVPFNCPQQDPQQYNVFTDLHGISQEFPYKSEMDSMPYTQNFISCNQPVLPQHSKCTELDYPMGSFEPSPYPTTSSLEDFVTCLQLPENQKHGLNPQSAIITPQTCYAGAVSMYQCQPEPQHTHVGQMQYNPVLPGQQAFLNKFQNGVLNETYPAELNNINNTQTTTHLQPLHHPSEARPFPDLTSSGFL
Briefly: In vitro assay 1: antagonism in human cell line (AHR transactivation, firefly luciferase reporter, kynurenic acid prestimulated). The assay is classed as cell-based. The note with it: AHR Antagonism Human IC50 [M]. In short, it runs like this:
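U87 MG + DRE-firefly/constitutive-Renilla stable reporters; kynurenic acid prestim; dual-luc read; Renilla = tox; normalized vs pos/neg controls (pos: 150 μM KYNA + 5 μM staurosporine).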
(In a reporter assay the amount or activity of a reporter protein is the signal.)

In assay [2] the target is T2, AHR (Mus musculus, UniProt P30561).
T2 sequence (P30561 1-848 P471L/N533S/M589L): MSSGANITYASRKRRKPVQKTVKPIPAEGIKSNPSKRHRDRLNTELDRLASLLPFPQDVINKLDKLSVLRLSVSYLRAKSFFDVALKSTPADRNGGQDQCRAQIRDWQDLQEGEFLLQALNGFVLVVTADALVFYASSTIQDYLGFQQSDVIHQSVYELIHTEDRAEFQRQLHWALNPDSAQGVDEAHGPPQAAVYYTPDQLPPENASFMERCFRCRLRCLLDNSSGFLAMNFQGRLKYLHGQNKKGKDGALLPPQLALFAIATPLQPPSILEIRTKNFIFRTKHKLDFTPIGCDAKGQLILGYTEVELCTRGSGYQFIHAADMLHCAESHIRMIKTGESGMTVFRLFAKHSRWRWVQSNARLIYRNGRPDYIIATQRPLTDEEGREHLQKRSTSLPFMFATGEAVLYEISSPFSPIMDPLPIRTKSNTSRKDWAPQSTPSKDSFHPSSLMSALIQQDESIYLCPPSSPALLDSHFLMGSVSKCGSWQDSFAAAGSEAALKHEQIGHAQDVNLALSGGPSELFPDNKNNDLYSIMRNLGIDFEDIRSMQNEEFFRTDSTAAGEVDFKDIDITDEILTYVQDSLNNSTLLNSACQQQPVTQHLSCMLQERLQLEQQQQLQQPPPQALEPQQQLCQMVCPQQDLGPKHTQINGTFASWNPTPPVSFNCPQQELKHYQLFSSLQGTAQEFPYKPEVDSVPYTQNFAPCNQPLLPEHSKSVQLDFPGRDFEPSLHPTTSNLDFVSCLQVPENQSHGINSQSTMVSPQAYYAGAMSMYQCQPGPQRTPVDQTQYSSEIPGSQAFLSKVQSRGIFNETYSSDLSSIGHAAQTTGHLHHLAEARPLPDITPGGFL
Description: In vitro assay 3: antagonism in mouse cell line (AHR transactivation, firefly luciferase reporter, kynurenic acid prestimulated). It counts as cell-based. The note with it: mouse Hepa 1c1c7 cells, 200 μM kynurenic acid, 20 hours, read-out: AHR Antagonism Mouse IC50. In short, it runs like this: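 Mouse cells stably carrying a DRE-driven, AHR-inducible firefly luciferase reporter were prestimulated with the endogenous agonist kynurenic acid before compound addition. Luciferase activity was measured by luminescence and normalized to positive and negative controls, with cells lacking kynurenic acid serving as full-inhibition control. Repeat tests are reported as mean or median.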

`COc1ccc(-c2nc3c4ccccc4nc(N[C@@H]4CCCCNC4=O)n3n2)c(OC(F)(F)F)c1` [Example 508, (3R)-3-({2-[4-methoxy-2-(trifluoromethoxy)phenyl][1,2,4]triazolo[1,5-c]quinazolin-5-yl}amino)azepan-2-one]: the figures for the IC50 at AHR [1] and at AHR [2] were 3.53e-09 M and 4.21 nM, respectively.
The matching figures for `COc1ccc(-c2nc3c4ccccc4nc(N[C@H]4CCCCNC4=O)n3n2)c(OC(F)(F)F)c1` [Example 509, (3S)-3-({2-[4-methoxy-2-(trifluoromethoxy)phenyl][1,2,4]triazolo[1,5-c]quinazolin-5-yl}amino)azepan-2-one]: 1.03e-07 M and 56.9 nM.
Regarding `CCC[C@@H](Nc1nc2ccccc2c2nc(-c3ccc(OC)cc3OC(F)(F)F)nn12)C(=O)NC` [Example 510, N^2-{2-[4-methoxy-2-(trifluoromethoxy)phenyl][1,2,4]triazolo[1,5-c]quinazolin-5-yl}-N-methyl-D-norvalinamide], the IC50 – broadly, the midpoint of a concentration-inhibition curve – against AHR [1] was determined as 5.39e-08 M; at AHR [2] it was 11.7 nM.
As to `CC[C@@H](Nc1nc2ccccc2c2nc(-c3ccc(OC)cc3OC(F)(F)F)nn12)C(N)=O` [Example 511, (2R)-2-({2-[4-methoxy-2-(trifluoromethoxy)phenyl][1,2,4]triazolo[1,5-c]quinazolin-5-yl}amino)butanamide], the IC50 at AHR [1] was 7.5e-09 M; at AHR [2] it was 1.4 nM.
For the compound `COc1ccc(-c2nc3c4ccccc4nc(N[C@@H]4CCCCNC4=O)n3n2)c(C(F)(F)F)c1` [Example 512, (3R)-3-({2-[4-methoxy-2-(trifluoromethyl)phenyl][1,2,4]triazolo[1,5-c]quinazolin-5-yl}amino)azepan-2-one], the IC50 on AHR [1] turned out to be 1.04e-08 M; on AHR [2], 2.48 nM.
Regarding `COc1ccc(-c2nc3c4ccccc4nc(N[C@H]4CCCCNC4=O)n3n2)c(C(F)(F)F)c1` [Example 513, (3S)-3-({2-[4-methoxy-2-(trifluoromethyl)phenyl][1,2,4]triazolo[1,5-c]quinazolin-5-yl}amino)azepan-2-one], the IC50 on AHR [1] was found to be 2.66e-07 M; on AHR [2], 35.6 nM.
Regarding `CC[C@H](Nc1nc2ccccc2c2nc(-c3ccc(OC)cc3C(F)(F)F)nn12)C(N)=O` [Example 514, (2S)-2-({2-[4-methoxy-2-(trifluoromethyl)phenyl][1,2,4]triazolo[1,5-c]quinazolin-5-yl}amino)butanamide], the half-maximal inhibitory concentration (IC50) at AHR [1] is greater than 2e-05 M; on AHR [2] it was 188 nM.
The matching figures for `CC[C@@H](Nc1nc2ccccc2c2nc(-c3ccc(OC)cc3C(F)(F)F)nn12)C(N)=O` [Example 515, (2R)-2-({2-[4-methoxy-2-(trifluoromethyl)phenyl][1,2,4]triazolo[1,5-c]quinazolin-5-yl}amino)butanamide]: 3.17e-08 M and 2.06 nM.
On the same counts, the results for `O=C1NCCCC[C@H]1Nc1nc2ccccc2c2nc(-c3ccc(F)cc3OC(F)(F)F)nn12` [Example 516, (3R)-3-({2-[4-fluoro-2-(trifluoromethoxy)phenyl][1,2,4]triazolo[1,5-c]quinazolin-5-yl}amino)azepan-2-one] are 4.64e-09 M and 2.18 nM.
As for `O=C1NCCCC[C@H]1Nc1nc2ccccc2c2nc(-c3ccc(Cl)cc3OC(F)(F)F)nn12` [Example 517, (3R)-3-({2-[4-chloro-2-(trifluoromethoxy)phenyl][1,2,4]triazolo[1,5-c]quinazolin-5-yl}amino)azepan-2-one], the IC50 stood at 1.47e-09 M against AHR [1] and 2.31 nM at AHR [2].
As to `O=C1NCCCC[C@@H]1Nc1nc2ccccc2c2nc(-c3ccc(Cl)cc3OC(F)(F)F)nn12` [Example 518, (3S)-3-({2-[4-chloro-2-(trifluoromethoxy)phenyl][1,2,4]triazolo[1,5-c]quinazolin-5-yl}amino)azepan-2-one], the IC50 was 4.5e-08 M at AHR [1] and 7.94 nM on AHR [2].

The values above are taken from patent US20230113037A1 (Bayer Aktiengesellschaft, priority 2019, published 2023).
